Where a name gives a salt, the structure may show the parent alone.

Assay [1] has as its target T1, Pyruvate kinase PKM (Homo sapiens, UniProt P14618). Put plainly: Activation of recombinant human N-terminal 6His-tagged PKM2 expressed in Escherichia coli BL21 cells at 10 uM after 30 mins by fluorescence based analysis relative to control.
Target sequence in this assay (P14618 2-531 limits assumed): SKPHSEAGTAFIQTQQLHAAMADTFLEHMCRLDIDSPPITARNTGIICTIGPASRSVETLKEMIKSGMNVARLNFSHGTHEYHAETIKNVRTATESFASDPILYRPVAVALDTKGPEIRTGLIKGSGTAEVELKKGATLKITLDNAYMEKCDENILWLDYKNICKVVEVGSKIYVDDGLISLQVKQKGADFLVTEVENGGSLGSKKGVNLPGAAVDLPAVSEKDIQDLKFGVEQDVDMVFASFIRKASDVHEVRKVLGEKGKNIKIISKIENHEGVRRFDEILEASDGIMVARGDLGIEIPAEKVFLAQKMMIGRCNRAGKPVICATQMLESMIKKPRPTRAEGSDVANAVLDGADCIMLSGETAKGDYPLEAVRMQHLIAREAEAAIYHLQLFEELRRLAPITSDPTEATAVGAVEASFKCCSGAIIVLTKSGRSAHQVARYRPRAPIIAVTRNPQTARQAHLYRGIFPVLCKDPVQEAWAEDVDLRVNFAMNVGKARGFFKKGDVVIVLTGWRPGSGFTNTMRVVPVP
Assay [2] deals with T1, Pyruvate kinase PKM. Put plainly: Activation of recombinant human N-terminal 6His-tagged PKM2 expressed in Escherichia coli BL21 cells after 50 mins by fluorescence based analysis.
Target sequence in this assay (P14618 whole entry): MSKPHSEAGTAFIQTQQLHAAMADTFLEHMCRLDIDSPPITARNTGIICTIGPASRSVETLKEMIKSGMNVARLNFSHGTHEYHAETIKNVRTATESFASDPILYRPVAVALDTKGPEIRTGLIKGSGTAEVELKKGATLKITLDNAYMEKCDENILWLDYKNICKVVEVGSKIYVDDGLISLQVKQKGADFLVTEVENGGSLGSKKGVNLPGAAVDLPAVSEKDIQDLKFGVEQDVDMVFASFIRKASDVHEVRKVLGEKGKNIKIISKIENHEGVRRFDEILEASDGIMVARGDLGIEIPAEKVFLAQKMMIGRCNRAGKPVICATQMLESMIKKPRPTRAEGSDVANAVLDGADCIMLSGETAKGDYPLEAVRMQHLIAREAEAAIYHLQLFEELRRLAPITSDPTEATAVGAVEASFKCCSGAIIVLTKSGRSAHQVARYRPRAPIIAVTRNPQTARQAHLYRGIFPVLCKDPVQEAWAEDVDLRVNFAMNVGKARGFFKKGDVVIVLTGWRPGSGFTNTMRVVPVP
In assay [3] the test system is U-87 MG. As to the kind of experiment: Antiproliferative activity against human U87 cells assessed as reduction in cell viability after 72 hrs by MTT assay. The class given is functional, cell-based, U-87MG ATCC.
Assay [4] relates to U-118-MG. As to the kind of experiment: Antiproliferative activity against human U118MG cells assessed as reduction in cell viability after 72 hrs by MTT assay. The class given is functional, cell-based.
Assay [5] deals with SF-126. Put plainly: Antiproliferative activity against human SF126 cells assessed as reduction in cell viability after 72 hrs by MTT assay. The class given is functional, cell-based. The following applies: SF-126, 72 h.
A short description of assay [6]: Antiproliferative activity against human SHG44 cells assessed as reduction in cell viability after 72 hrs by MTT assay. The settings on record: SHG-44, 72 h. The class given is functional, cell-based.
In assay [7] the test system is U-251. As to the kind of experiment: Antiproliferative activity against human U251 cells assessed as reduction in cell viability after 72 hrs by MTT assay. The class given is functional, cell-based. The settings on record: U-251, 72 h.
In assay [8] the test system is C6. As to the kind of experiment: Antiproliferative activity against rat C6 cells assessed as reduction in cell viability after 72 hrs by MTT assay. The class given is functional, cell-based. The following applies: C6, 72 h.
The subject of assay [9] is NIH3T3. Put plainly: Cytotoxicity against mouse 3T3 cells assessed as reduction in cell viability after 72 hrs by MTT assay. The following applies: NIH3T3, 72 h. The class given is cell-based.

With `C=C1C(=O)O[C@H]2[C@H]1CC/C(C(=O)OCCOCCOCCOCCOCCOCCOCCOCCOC(=O)/C1=C/CC[C@@]3(C)O[C@H]3[C@H]3OC(=O)C(=C)[C@@H]3CC1)=C\CC[C@@]1(C)O[C@@H]21`, in assay [1], the fold change (FC) was more than 2. For the same compound, the half-maximal activity concentration (AC50) in assay [2] was 0.065 µM. For the same compound, the half-maximal inhibitory concentration (IC50) in [3] was 12.9 µM; in [4], 11.8 µM; in assay [5], more than 50 µM; in assay [6], 25.7 µM; in [7], more than 50 µM; in assay [8], 4.98 µM. The IC50 in assay [9] worked out at 22 µM.

In the case of `COc1cccc2c1C(=O)c1c(O)c3c(c(O)c1C2=O)C[C@@](O)(C(=O)CO)C[C@@H]3O[C@H]1C[C@H](N)[C@H](O)[C@H](C)O1` [DOXORUBICIN HYDROCHLORIDE], the 50% inhibitory concentration (IC50) in assay [3] stood at 0.15 µM; in [4], 0.09 µM; in assay [5], 0.26 µM; in assay [6], 1.84 µM; in assay [7] it was 48 µM; in assay [8], 0.06 µM. Moreover, the half-inhibitory concentration (IC50) in [9] amounted to 0.34 µM.

On to `C=C1C(=O)O[C@H]2[C@H]1CC/C(C(=O)OCCOCCOCCOCCOCCOCCOCCOCCOCCOCCOCCOCCOCCOCCOCCOCCOCCOCCOCCOCCOC(=O)/C1=C/CC[C@@]3(C)O[C@H]3[C@H]3OC(=O)C(=C)[C@@H]3CC1)=C\CC[C@@]1(C)O[C@@H]21`, for which, in assay [1], the fold change (FC) is more than 2. The half-maximal inhibitory concentration (IC50) in [3], in assay [4], in assay [5], in [6], in assay [7] and in [8] was more than 50 µM each time. In [9], the IC50 is more than 50 µM.

For the compound `C=C1C(=O)O[C@H]2[C@H]1CC/C(C(=O)OCCOCCOCCOC(=O)/C1=C/CC[C@@]3(C)O[C@H]3[C@H]3OC(=O)C(=C)[C@@H]3CC1)=C\CC[C@@]1(C)O[C@@H]21`, in assay [1], the fold change (FC) was more than 2. In addition, the half-maximal activity concentration (AC50) in [2] came to 0.052 µM. Besides, the IC50 in assay [3] is 3.09 µM; in assay [4], 2.87 µM; in assay [5] it was 10.2 µM; in assay [6] it was 10.5 µM; in assay [7], 9.59 µM; in assay [8], 1.59 µM. In addition, the half-inhibitory concentration (IC50) in assay [9] was found to be 7.86 µM.

For `C=C1C(=O)O[C@H]2[C@H]1CC/C(C(=O)OCCOCCOCCOCCOCCOCCOCCOCCOCCOCCOC(=O)/C1=C/CC[C@@]3(C)O[C@H]3[C@H]3OC(=O)C(=C)[C@@H]3CC1)=C\CC[C@@]1(C)O[C@@H]21`, in assay [1], the fold change (FC) is more than 2. The 50% inhibitory concentration (IC50) was more than 50 µM in [3]; 18.7 µM in assay [4]; 23.1 µM in assay [5]; 24.5 µM in [6]; 23.3 µM in assay [7]; 14.2 µM in assay [8]. Besides, in assay [9], the IC50 is more than 50 µM.

For the compound `C=C1C(=O)O[C@H]2[C@H]1CC/C(C(=O)OCCOCCOCCOCCOCCOC(=O)/C1=C/CC[C@@]3(C)O[C@H]3[C@H]3OC(=O)C(=C)[C@@H]3CC1)=C\CC[C@@]1(C)O[C@@H]21`, the fold change (FC) in assay [1] is more than 2. For the same compound, the concentration for half-maximal inhibition (IC50) in [3] stood at 10.6 µM; in assay [4], 7.5 µM; in [5], 21 µM; in assay [6], 18.5 µM; in assay [7], 14.1 µM; in assay [8], 4.82 µM. Further, the 50% inhibitory concentration (IC50) in [9] worked out at 18.8 µM.

As to `C=C1C(=O)O[C@H]2[C@H]1CC/C(C(=O)OCCOCCOCCOCCOCCOCCOCCOCCOCCOCCOCCOCCOC(=O)/C1=C/CC[C@@]3(C)O[C@H]3[C@H]3OC(=O)C(=C)[C@@H]3CC1)=C\CC[C@@]1(C)O[C@@H]21`, the fold change (FC) in assay [1] was more than 2. For the same compound, the IC50 in assay [3] is 16.2 µM; in assay [4], 17.4 µM; in assay [5], more than 50 µM; in assay [6], 50.1 µM; in [7], more than 50 µM; in [8] it was more than 50 µM. Besides, in assay [9], the IC50 was more than 50 µM.

Consider `C=C1C(=O)O[C@H]2[C@H]1CC/C(C(=O)OCCOCCOCCOCCOCCOCCOC(=O)/C1=C/CC[C@@]3(C)O[C@H]3[C@H]3OC(=O)C(=C)[C@@H]3CC1)=C\CC[C@@]1(C)O[C@@H]21`, for which the fold change (FC) in assay [1] was more than 2. In addition, the half-inhibitory concentration (IC50) was 15.1 µM in [3]; 10.6 µM in [4]; more than 50 µM in assay [5]; more than 50 µM in assay [6]; more than 50 µM in assay [7]; more than 50 µM in assay [8]. Moreover, in [9], the half-inhibitory concentration (IC50) is more than 50 µM.

Regarding `C=C1C(=O)O[C@H]2[C@H]1CC/C(C(=O)OCCOCCOCCOCCOCCOCCOCCOCCOCCOCCOCCOCCOCCOCCOCCOCCOCCOCCOC(=O)/C1=C/CC[C@@]3(C)O[C@H]3[C@H]3OC(=O)C(=C)[C@@H]3CC1)=C\CC[C@@]1(C)O[C@@H]21`, the fold change (FC) in assay [1] is more than 2. In addition, the half-inhibitory concentration (IC50) in [3], in assay [4], in assay [5], in [6], in assay [7] and in assay [8] was more than 50 µM each time. Further, the half-inhibitory concentration (IC50) in [9] was more than 50 µM.

With `C=C1C(=O)O[C@H]2[C@H]1CC/C(C(=O)OCCOCCOCCOCCOC(=O)/C1=C/CC[C@@]3(C)O[C@H]3[C@H]3OC(=O)C(=C)[C@@H]3CC1)=C\CC[C@@]1(C)O[C@@H]21`, the fold change (FC) in assay [1] is more than 2. Also, the IC50 was 9.13 µM in assay [3]; 7.97 µM in assay [4]; 20.1 µM in assay [5]; 16.3 µM in [6]; 16.6 µM in assay [7]; 4.26 µM in [8]. For the same compound, the IC50 in assay [9] amounted to 16.1 µM.

On to `C=C1C(=O)O[C@@H]2C3O[C@]3(C)CC/C=C(\C)CC[C@@H]12` (stereo partly drawn), for which the 50% inhibitory concentration (IC50) in assay [3] stood at 4.38 µM; in [4], 5.94 µM; in [5] it was 17.1 µM; in assay [6] it was 9.52 µM; in [7] it was 12.6 µM; in [8], 5.45 µM. In addition, the IC50 in assay [9] is 7.14 µM.

Take `Cn1c2cc([S+](C)[O-])sc2c2cnn(Cc3cccc(N)c3)c(=O)c21` (stereo not drawn): the IC50 in [3] came to 86.3 µM; in [4], 85 µM; in assay [5] it was 89 µM; in assay [6], 49 µM; in assay [7], 65.4 µM; in assay [8], 81.8 µM. The IC50 in assay [9] was determined as 56.6 µM.

As for `C=C1C(=O)O[C@H]2[C@H]1CC/C(C(=O)OCCOCCOCCOCCOCCOCCOCCOCCOCCOCCOCCOCCOCCOCCOCCOCCOCCOCCOCCOCCOCCOCCOCCOCCOC(=O)/C1=C/CC[C@@]3(C)O[C@H]3[C@H]3OC(=O)C(=C)[C@@H]3CC1)=C\CC[C@@]1(C)O[C@@H]21`, the fold change (FC) in assay [1] is more than 2. Besides, the half-maximal inhibitory concentration (IC50) in assay [3], in assay [4], in assay [5], in assay [6], in assay [7] and in assay [8] was more than 50 µM in each case. The IC50 in [9] was more than 50 µM.
